Measured values: patent EP1951748B1, “HEPATITIS C VIRUS VARIANTS” (Vertex Pharmaceuticals, Inc., priority 2005, dated 2007)
Several values for one entry are separate records, joined by “and”; a condition that tells them apart may be missing. Identical values can stand only once.

Assays:
[1] = system: HCV replicon cells containing R155K; type: cell-based; conditions: for Replicon Assay (resistance of viral variant): R155K, value (spread in brackets)
Text: (§1) The stable wild-type (mADE) and variant HCV sub-genomic replicon cell lines were generated using the T7 RNA runoff transcripts from the corresponding high efficiency Con1 replicon plasmids.
(§2) The stable wild-type and variant HCV sub-genomic replicon cell lines were generated using the T7 RNA runoff transcripts from the corresponding high efficiency Con1 replicon plasmids.

[2] = system: HCV replicon cells containing R155T; type: cell-based; conditions: for Replicon Assay (resistance of viral variant): R155T, value (spread in brackets)
Text: as §1, §2

[3] = system: HCV replicon cells containing R155I; type: cell-based; conditions: value (spread in brackets), 2880 min
[4] = system: HCV replicon cells containing R155G; type: cell-based; conditions: value (spread in brackets), 2880 min
[5] = system: HCV replicon cells containing R155M; type: cell-based; conditions: for Replicon Assay (resistance of viral variant): R155M, value (spread in brackets)
Text: as §1, §2

HCV NS3 protease T54A = type: biochemical
HCV NS3 protease A156S = type: biochemical
HCV NS3 protease A156T = type: biochemical
[6] = system: Con1-based HCV replicon cells with a different set of adaptive mutations (24-2); conditions: determined previously in 24-2 replicon cells (refs 25,41); read-out: 48-h IC50; cited from earlier work
genotype 1 HCV = experiment: Phase 1b clinical trial (Study VX04-950-101), plasma HCV RNA; conditions: for Δ in VL (Log change in HCV RNA from nadir to Day 14 (end of dosing)): 14 days, one value per subject
[7] = Hepatitis C virus, 48 h, read-out: Replicon IC50

**Q.** With `CC(C)(C)OC(=O)N[C@H]1CCCCC/C=C\[C@@H]2C[C@@]2(C(=O)NS(=O)(=O)C2CC2)NC(=O)[C@@H]2C[C@@H](OC(=O)N3Cc4cccc(F)c4C3)CN2C1=O` [ITMN-191] as the molecule, how does the “Replicon Assay (resistance of viral variant)” value (shortened to “Replicon Assay”) ([1]; 2880 min) read?
**A.** The value was 62.8.

**Q.** And the “Replicon Assay” value ([2]; 2880 min)?
**A.** The value was 9.2.

**Q.** What about the “Replicon Assay” value [3] of the same molecule?
**A.** Its value is 1.3(0.2).

**Q.** What about the “Replicon Assay” value [4] of the same molecule?
**A.** Its value is 18.7(3.0).

**Q.** With `CC(C)(C)NC(=O)N[C@H](C(=O)N1C[C@H]2[C@@H]([C@H]1C(=O)NC(CC1CCC1)C(=O)C(N)=O)C2(C)C)C(C)(C)C` (stereo partly drawn) [SCH 503034] as the molecule, how does the “Replicon Assay” value ([1]; 2880 min) read?
**A.** Its value is 6.2(4.9).

**Q.** What about the “Replicon Assay” value ([5]; 2880 min) of the same molecule?
**A.** The value was 2.5(0.3).

**Q.** What about the “Replicon Assay” value ([2]; 2880 min) of the same molecule?
**A.** The value was 10.2(2.4).

**Q.** What about the “Replicon Assay” value [3] of the same molecule?
**A.** Its value is 6.6(2.1).

**Q.** What about the “Replicon Assay” value [4] of the same molecule?
**A.** The value was 2.8(0.6).

**Q.** Which IC50 [1, 7] does the source give for `NC(=O)c1ncn([C@@H]2O[C@H](CO)[C@@H](O)[C@H]2O)n1` [Ribavirin, 1-beta-D-ribofuranosyl-1H-- 1,2,4-triazole-3-carboxamide] here?
**A.** The IC50 was 37 ± 17 µM.

**Q.** What about the Fold change ([1]; replicon IC50 of R155K divided by that of the wild-type HCV replicon, 2880 min) of the same molecule?
**A.** Its Fold change is 0.6 ± 0.3.

**Q.** And the IC50 [5, 7]?
**A.** Its IC50 is 39 ± 5 µM.

**Q.** What about the Fold change ([5]; replicon IC50 of R155M divided by that of the wild-type HCV replicon, 2880 min) of the same molecule?
**A.** Its Fold change is 0.7 ± 0.1.

**Q.** What about the IC50 [2, 7] of the same molecule?
**A.** The IC50 was 32 ± 18 µM.

**Q.** What about the Fold change ([2]; replicon IC50 of R155T divided by that of the wild-type HCV replicon, 2880 min) of the same molecule?
**A.** Its Fold change is 0.6 ± 0.3.

**Q.** With `COc1ccc2c(O[C@@H]3C[C@H]4C(=O)N[C@]5(C(=O)O)C[C@H]5/C=C\CCCCC[C@H](NC(=O)OC5CCCC5)C(=O)N4C3)cc(-c3csc(NC(C)C)n3)nc2c1` [BILN 2061] as the molecule, how does the “Replicon Assay” value ([1]; 2880 min) read?
**A.** The value was 355 (213).

**Q.** What about the “Replicon Assay” value ([5]; 2880 min) of the same molecule?
**A.** Its value is 42.2(2.1).

**Q.** And the “Replicon Assay” value ([2]; 2880 min)?
**A.** The value was 645 (173).

**Q.** What about the “Replicon Assay” value [3] of the same molecule?
**A.** The value was 36.5 (9.5).

**Q.** What about the “Replicon Assay” value [4] of the same molecule?
**A.** Its value is 821 (208).

**Q.** And the IC50 (HCV NS3 protease T54A; T54A)?
**A.** Its IC50 is 0.01 µM.

**Q.** And the Fold change (HCV NS3 protease T54A; enzyme IC50 of T54A compared to the genotype 1a HCV-H reference strain, 15 min)?
**A.** The Fold change was 2.3.

**Q.** And the IC50 (HCV NS3 protease A156S; A156S)?
**A.** The IC50 was 0.0074 µM.

**Q.** What about the Fold change (HCV NS3 protease A156S; enzyme IC50 of A156S compared to the genotype 1a HCV-H reference strain, 15 min) of the same molecule?
**A.** The Fold change was 1.6.

**Q.** What about the Fold change (HCV NS3 protease A156T; enzyme IC50 of A156T compared to the genotype 1a HCV-H reference strain, 15 min) of the same molecule?
**A.** Its Fold change is over 183.

**Q.** With `CCC[C@H](NC(=O)[C@@H]1[C@H]2CCC[C@H]2CN1C(=O)[C@@H](NC(=O)[C@@H](NC(=O)c1cnccn1)C1CCCCC1)C(C)(C)C)C(=O)C(=O)NC1CC1` [VX-950] as the molecule, how does the IC50 (HCV NS3 protease A156T; A156T, one row per patient-specific genetic background) read?
**A.** The IC50 was 21.5 µM and 15 µM.

**Q.** And the IC50 (HCV NS3 protease A156I)?
**A.** Its IC50 is over 50 µM.

**Q.** What about the IC50 [6] of the same molecule?
**A.** Its IC50 is 0.354 µM.

**Q.** And the “HCV RNA levels at Day 14” value (genotype 1 HCV; 7 patients with continued response, down to undetectable (<10 IU/mL))?
**A.** The value was at most 64 IU/mL.

**Q.** What about the “drop in HCV RNA (initial response)” value (genotype 1 HCV; 13 patients who later rebounded during dosing) of the same molecule?
**A.** The value was “greater than 2 log10”.

**Q.** What about the “Δ in VL (Log change in HCV RNA from nadir to Day 14 (end of dosing))” value (genotype 1 HCV; dose 450 (mg q8h)) of the same molecule?
**A.** Its value is 1.82 and 0.65 and 0.41 and 1.84 and 1.06.

**Q.** What about the “Δ in VL (Log change in HCV RNA from nadir to Day 14 (end of dosing))” value (genotype 1 HCV; dose 750 (mg q8h)) of the same molecule?
**A.** The value was 0.73 and 0.22.

**Q.** And the “Δ in VL (Log change in HCV RNA from nadir to Day 14 (end of dosing))” value (genotype 1 HCV; dose 1250 (mg q12h))?
**A.** Its value is 3.20 and 1.16 and 1.93 and 0.05 and 0.33 and 0.62 and 0.26.
